Source: patent EP3868759A1, “2,3,5-SUBSTITUTED PYRROLO[2,3-B]PYRIDINES AS ERBB MODULATORS USEFUL FOR TREATING CANCER” (PearlRiver Bio GmbH, priority 2020, dated 2021)

Assays:
[1] = target: T1, HER2 INS YVMA (Homo sapiens, UniProt P04626, INS775YVMA); test: Lance Kinase Activity Assay, Her2 Exon 20 InsYVMA; details: biochemical Lance assay
T1 construct: purchased DPF
How it was run: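 TR-FRET (LANCE) assay: HER2 ex20 YVMA kinase phosphorylates ULight-peptide; compounds in 8-point 1:3 dilutions from 10 mM DMSO stock; ATP-started, 1 h at room temperature, stopped with EDTA plus Eu-anti-phosphopeptide antibody, 1 h more. Read 665/615 nm emission; IC50 from sigmoidal dose-response curves.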

[2] = tested on: EGFR Exon 20 InsNPH Ba/F3; test: CellTiter-Glo cell viability, EGFR Exon 20 InsNPH Ba/F3; type: cell-based; details: Mus musculus, BaF3, 72 h, read-out: EGFR Exon 20 InsNPH Ba/F3 CTG IC50
How it was run: (§1)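 Luminescent ATP quantification (CellTiter-Glo) after 72 h compound exposure gave viability; IC50 values came from dose-response curve fitting. Cells had been pre-incubated 24 h at 37°C, 5% CO2. Only plates with Z'-factor ≥ 0.5 were used.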

[3] = tested on: Her2 Exon 20 InsYVMA Ba/F3; test: CellTiter-Glo cell viability, Her2 Exon 20 InsYVMA Ba/F3; type: cell-based; details: Mus musculus, BaF3, 72 h, read-out: Her2 Exon 20 InsYVMA Ba/F3 CTG IC50
How it was run: as §1

[4] = tested on: Cuto-17; test: CellTiter-Glo cell viability, Cuto-17; type: cell-based; details: CUTO17, 72 h, read-out: Cuto-17 CTG IC50
How it was run: as §1

[5] = target: EGFR T790M L858R (Homo sapiens, UniProt P00533, L858R/T790M); test: Lance assay, EGFR T790M L858R; details: biochemical Lance assay
[6] = target: EGFR L858R (Homo sapiens, UniProt P00533, L858R); test: Lance assay, EGFR L858R; details: biochemical Lance assay
[7] = target: EGFR (del746-750) (Homo sapiens, UniProt P00533, DEL746-750); test: Lance assay, EGFR (del746-750); details: biochemical Lance assay
[8] = target: EGFR wt (Homo sapiens, UniProt P00533); test: Lance assay, EGFR wt; details: biochemical Lance assay
[9] = tested on: H1975; test: CellTiter-Glo cell viability, H1975; type: cell-based; details: Homo sapiens, NCI-H1975, 72 h, read-out: H1975 CTG IC50
How it was run: as §1

[10] = tested on: A431; test: CellTiter-Glo cell viability, A431; type: cell-based; details: Homo sapiens, A-431, 72 h, read-out: A431 CTG IC50
How it was run: as §1

[11] = tested on: EGFR L858R T790M Ba/F3; test: CellTiter-Glo cell viability, EGFR L858R T790M Ba/F3; type: cell-based; details: Mus musculus, BaF3, 72 h, read-out: EGFR L858R T790M Ba/F3 CTG IC50 /
Procedure: (§2) The CellTiter-Glo Luminescent Cell Viability Assay (Promega) is a homogeneous method of determining the number of viable cells in culture. It is based on quantification of ATP, indicating the presence of metabolically active cells. Cells are seeded on day 1 at cell numbers that assure assay linearity and optimal signal intensity. After incubation for 24h in humidified chambers at 37°C and 5% CO2, compounds in DMSO are added at different concentrations. Cells are further incubated for 72 h at 37°C and 5% CO2. Cells treated with the compound vehicle DMSO are used as positive controls and cells treated with 10 µM Staurosporine serve as negative controls. At day 5 the CellTiter Glo Reagent is prepared according to the instructions of the kit (Promega Inc.): Reagent is mixed 1:1 with cell culture medium. Thereon, mixture and assay plates are equilibrated at room temperature for 20 min. Equal volumes of the reagent-medium-mixture is added to the volume of culture medium present in each well. The plates are mixed at ∼200 rpm for 2 minutes on an orbital shaker. The microplates are then incubated at room temperature for 10 minutes for stabilization of the luminescent signal. Following incubation the luminescence is recorded on a Victor microplate reader (Perkin Elmer) using a 200 ms integration time. The data is then analyzed with Excel using the XLFIT Plugin (dose response Fit 205) for IC50-determination. As quality control the Z'-factor is calculated from 16 positive and negative control values. Only assay results showing a Z'-factor ≥ 0.5 are used for further analysis.

[12] = tested on: EGFR L858R Ba/F3; test: CellTiter-Glo cell viability, EGFR L858R Ba/F3; type: cell-based; details: Mus musculus, BaF3, 72 h, read-out: EGFR L858R Ba/F3 CTG IC50 /
Procedure: as §2

[13] = tested on: EGFR vIII Ba/F3; test: CellTiter-Glo cell viability, EGFR vIII Ba/F3; type: cell-based; details: Mus musculus, BaF3, 72 h, read-out: EGFR vIII Ba/F3 CTG IC50 /
How it was run: as §1

Chain of EGFR wt (P00533 25-1210): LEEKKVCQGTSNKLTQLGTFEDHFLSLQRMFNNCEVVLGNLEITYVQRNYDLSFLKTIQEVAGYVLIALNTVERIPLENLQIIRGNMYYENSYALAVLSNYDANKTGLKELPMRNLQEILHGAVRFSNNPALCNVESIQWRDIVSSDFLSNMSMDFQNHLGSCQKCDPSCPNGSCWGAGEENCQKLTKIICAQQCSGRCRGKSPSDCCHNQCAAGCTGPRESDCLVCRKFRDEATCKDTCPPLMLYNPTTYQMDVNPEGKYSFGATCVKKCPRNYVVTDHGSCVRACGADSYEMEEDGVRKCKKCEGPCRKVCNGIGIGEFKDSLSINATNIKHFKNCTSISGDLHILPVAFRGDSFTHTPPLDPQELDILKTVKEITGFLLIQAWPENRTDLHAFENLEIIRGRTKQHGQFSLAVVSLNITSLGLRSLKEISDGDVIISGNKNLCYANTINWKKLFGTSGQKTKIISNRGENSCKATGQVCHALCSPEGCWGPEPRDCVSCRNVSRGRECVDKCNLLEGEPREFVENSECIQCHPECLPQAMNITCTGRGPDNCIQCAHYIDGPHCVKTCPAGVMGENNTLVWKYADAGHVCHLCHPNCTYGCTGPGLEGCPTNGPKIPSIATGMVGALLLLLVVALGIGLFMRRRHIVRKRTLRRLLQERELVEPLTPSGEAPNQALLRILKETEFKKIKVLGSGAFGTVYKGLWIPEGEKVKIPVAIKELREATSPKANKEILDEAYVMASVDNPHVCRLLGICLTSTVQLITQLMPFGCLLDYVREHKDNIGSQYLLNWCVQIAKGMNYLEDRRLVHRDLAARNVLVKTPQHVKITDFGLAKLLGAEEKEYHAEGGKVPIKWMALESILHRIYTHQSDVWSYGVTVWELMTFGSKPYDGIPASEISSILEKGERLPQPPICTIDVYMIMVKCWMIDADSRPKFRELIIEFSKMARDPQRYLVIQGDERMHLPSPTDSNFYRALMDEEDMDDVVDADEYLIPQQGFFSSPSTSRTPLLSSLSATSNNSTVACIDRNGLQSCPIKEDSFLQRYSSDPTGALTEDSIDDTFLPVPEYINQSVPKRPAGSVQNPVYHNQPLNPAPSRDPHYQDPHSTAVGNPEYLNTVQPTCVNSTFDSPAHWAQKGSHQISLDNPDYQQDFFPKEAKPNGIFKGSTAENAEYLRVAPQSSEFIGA
Chain of EGFR L858R (P00533 25-1210 L858R): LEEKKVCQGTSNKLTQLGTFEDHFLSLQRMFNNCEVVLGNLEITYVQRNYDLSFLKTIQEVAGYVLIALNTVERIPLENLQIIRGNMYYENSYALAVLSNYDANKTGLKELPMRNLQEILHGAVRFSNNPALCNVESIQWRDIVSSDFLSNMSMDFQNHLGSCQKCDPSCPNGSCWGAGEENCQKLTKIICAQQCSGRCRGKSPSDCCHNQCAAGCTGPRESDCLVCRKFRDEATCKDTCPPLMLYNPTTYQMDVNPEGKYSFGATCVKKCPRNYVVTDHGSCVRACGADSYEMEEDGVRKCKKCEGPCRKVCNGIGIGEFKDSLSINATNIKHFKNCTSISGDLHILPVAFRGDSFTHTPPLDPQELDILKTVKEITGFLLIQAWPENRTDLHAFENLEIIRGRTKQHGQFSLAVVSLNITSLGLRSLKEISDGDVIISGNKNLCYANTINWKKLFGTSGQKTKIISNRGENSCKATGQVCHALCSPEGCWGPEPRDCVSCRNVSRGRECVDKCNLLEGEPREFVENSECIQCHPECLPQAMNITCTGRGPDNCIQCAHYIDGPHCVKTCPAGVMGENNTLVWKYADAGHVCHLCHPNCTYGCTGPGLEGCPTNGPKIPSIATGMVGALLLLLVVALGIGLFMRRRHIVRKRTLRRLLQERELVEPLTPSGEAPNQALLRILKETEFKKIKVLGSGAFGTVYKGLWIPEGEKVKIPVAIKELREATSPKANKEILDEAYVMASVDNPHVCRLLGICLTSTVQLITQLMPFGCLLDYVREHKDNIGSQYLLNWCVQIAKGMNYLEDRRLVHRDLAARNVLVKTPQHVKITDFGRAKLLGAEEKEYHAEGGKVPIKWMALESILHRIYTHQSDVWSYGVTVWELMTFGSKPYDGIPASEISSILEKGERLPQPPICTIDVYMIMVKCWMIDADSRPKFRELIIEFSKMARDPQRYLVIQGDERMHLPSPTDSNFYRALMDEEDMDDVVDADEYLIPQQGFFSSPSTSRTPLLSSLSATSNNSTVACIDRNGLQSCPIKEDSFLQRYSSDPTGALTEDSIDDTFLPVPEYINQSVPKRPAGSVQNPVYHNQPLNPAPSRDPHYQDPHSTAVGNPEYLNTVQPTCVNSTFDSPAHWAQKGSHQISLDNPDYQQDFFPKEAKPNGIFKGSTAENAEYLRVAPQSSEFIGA
Chain of EGFR T790M L858R (P00533 25-1210 T790M/L858R): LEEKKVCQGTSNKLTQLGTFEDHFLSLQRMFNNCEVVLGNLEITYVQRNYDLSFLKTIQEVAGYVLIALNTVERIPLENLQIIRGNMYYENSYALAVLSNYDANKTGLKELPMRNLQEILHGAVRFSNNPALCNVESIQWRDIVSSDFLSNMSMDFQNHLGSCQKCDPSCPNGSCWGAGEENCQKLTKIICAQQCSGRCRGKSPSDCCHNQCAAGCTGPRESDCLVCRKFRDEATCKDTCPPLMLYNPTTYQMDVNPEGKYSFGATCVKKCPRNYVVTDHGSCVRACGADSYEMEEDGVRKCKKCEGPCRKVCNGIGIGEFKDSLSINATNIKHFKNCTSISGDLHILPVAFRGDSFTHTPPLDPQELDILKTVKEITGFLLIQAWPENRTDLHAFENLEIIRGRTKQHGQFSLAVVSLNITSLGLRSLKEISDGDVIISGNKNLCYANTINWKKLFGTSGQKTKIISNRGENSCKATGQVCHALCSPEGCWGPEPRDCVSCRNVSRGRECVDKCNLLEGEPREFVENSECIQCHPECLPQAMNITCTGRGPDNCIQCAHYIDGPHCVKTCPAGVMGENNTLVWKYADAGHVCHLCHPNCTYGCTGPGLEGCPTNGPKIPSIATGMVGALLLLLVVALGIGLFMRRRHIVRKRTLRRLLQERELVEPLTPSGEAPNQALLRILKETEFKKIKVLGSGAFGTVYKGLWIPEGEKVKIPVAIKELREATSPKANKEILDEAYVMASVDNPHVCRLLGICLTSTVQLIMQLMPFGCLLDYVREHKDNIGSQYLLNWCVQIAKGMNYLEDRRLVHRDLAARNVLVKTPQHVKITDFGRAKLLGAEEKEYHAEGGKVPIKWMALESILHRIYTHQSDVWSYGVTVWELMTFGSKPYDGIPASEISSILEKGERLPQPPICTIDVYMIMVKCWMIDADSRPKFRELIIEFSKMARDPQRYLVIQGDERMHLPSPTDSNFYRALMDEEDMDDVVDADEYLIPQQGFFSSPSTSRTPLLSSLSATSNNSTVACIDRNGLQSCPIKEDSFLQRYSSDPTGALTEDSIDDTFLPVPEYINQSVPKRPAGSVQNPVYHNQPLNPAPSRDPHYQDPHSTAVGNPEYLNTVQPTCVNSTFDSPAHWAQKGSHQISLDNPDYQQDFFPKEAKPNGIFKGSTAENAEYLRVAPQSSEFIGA
Chain of EGFR (del746-750) (P00533 with tags, fused parts or gaps DEL746-750): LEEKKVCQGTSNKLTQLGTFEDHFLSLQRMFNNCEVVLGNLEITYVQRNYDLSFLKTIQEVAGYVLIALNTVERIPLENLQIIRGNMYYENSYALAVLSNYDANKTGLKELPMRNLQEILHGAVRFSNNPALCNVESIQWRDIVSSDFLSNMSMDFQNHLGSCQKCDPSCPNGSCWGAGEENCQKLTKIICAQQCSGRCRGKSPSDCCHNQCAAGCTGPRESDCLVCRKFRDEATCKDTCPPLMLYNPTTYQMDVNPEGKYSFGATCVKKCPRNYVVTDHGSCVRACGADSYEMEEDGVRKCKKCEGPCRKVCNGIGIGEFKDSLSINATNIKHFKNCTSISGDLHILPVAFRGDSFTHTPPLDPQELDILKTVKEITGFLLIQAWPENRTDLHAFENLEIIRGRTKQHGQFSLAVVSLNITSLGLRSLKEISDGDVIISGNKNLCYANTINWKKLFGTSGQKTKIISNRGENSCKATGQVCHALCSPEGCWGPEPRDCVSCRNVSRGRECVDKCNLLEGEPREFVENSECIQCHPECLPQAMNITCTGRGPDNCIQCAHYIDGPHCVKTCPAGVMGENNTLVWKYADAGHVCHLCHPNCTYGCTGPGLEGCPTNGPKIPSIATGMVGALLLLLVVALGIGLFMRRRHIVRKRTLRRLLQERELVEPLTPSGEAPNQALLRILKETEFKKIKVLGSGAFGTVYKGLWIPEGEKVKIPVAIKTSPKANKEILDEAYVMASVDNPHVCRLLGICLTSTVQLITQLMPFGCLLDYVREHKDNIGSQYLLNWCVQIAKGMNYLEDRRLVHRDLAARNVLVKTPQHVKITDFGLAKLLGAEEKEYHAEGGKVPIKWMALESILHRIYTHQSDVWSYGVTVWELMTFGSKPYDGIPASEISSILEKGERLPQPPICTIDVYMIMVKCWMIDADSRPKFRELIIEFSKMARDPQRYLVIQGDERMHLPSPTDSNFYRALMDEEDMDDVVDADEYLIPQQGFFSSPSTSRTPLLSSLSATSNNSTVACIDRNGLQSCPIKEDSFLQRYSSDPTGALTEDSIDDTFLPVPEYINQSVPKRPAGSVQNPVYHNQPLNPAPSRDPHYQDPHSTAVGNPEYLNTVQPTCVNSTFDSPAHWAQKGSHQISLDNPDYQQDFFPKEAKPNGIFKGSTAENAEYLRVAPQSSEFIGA

IC50 [1] | IC50 [2] | IC50 [3] | IC50 [5] | IC50 [6] | IC50 [7] | IC50 [8] | IC50 [9] | IC50 [10] | IC50 [11] | IC50 [12] | IC50 [13] | Structure (SMILES) | IC50 [4]
50 to 100 nM | 50 to 100 nM | 50 to 100 nM | ≤ 50 nM | ≤ 50 nM | ≤ 50 nM | ≤ 50 nM | 500 to 1000 nM | 1000 to 10000 nM | ≤ 50 nM | ≤ 50 nM | 100 to 500 nM | C=CC(=O)Nc1cc(-c2c(-c3cnn(CC)c3)[nH]c3ncc(C(=O)OC(C)C)cc23)cc(F)c1C [Example 5, isopropyl 3-(3-acrylamido-5-fluoro-4-methylphenyl)-2-(1-ethyl-1 H-pyrazol-4-yl)-1H-pyrrolo[2,3-b]pyridine-5-carboxylate] | 100 to 500 nM
100 to 500 nM | 50 to 100 nM | 100 to 500 nM | ≤ 50 nM | ≤ 50 nM | ≤ 50 nM | ≤ 50 nM | 100 to 500 nM | 1000 to 10000 nM | 50 to 100 nM | ≤ 50 nM | 50 to 100 nM | C=CC(=O)Nc1cc(-c2c(-c3cnn(C)c3)[nH]c3ncc(C(=O)OC(C)C)c(C)c23)ccc1C [Example 7, isopropyl 3-(3-acrylamido-4-methylphenyl)-4-methyl-2-(1-methyl-1H-pyrazol-4-yl)-1H-pyrrolo[2,3-b]pyridine-5-carboxylate2,2,2-trifluoroacetate] | 100 to 500 nM
≤ 50 nM | 50 to 100 nM | 100 to 500 nM | ≤ 50 nM | ≤ 50 nM | ≤ 50 nM | ≤ 50 nM | 100 to 500 nM | 1000 to 10000 nM | ≤ 50 nM | ≤ 50 nM | 50 to 100 nM | C=CC(=O)Nc1cc(-c2c(-c3cnn(CCN(C)C)c3)[nH]c3ncc(C(=O)OC(C)C)c(C)c23)ccc1C [Example 15, isopropyl 3-(3-acrylamido-4-methylphenyl)-2-(1-(2-(dimethylamino)ethyl)-1 H-pyrazol-4-yl)-4-methyl-1 H-pyrrolo[2,3-b]pyridine-5-carboxylate] | 100 to 500 nM

Structure (SMILES) | IC50 [1] | IC50 [2] | IC50 [3] | IC50 [5] | IC50 [6] | IC50 [7] | IC50 [8] | IC50 [9] | IC50 [10] | IC50 [11] | IC50 [12] | IC50 [13] | IC50 [4]
C=CC(=O)Nc1cc(-c2c(-c3cnn(C)c3)[nH]c3ncc(OCC(C)C)cc23)ccc1C [Example 4, N-(5-(5-isobutoxy-2-(1-methyl-1H-pyrazol-4-yl)-1H-pyrrolo[2,3-b]pyridin-3-yl)-2-methylphenyl)acrylamide 2,2,2-trifluoroacetate] | 50 to 100 nM | 100 to 500 nM | 100 to 500 nM | 50 to 100 nM | ≤ 50 nM | ≤ 50 nM | ≤ 50 nM | 100 to 500 nM | 1000 to 10000 nM | ≤ 50 nM | ≤ 50 nM | ≤ 50 nM | 100 to 500 nM
